In series [1] the test system is C57BL/6J mouse models of anemia induced by cisplatin. Description: Improvement of anemia induced by cisplatin administration. The format is in vivo. The conditions noted are these: cisplatin-induced anemia mice, po, 20 mg·kg^-1. The procedure: 5. Pharmacodynamic assay
The experimental mice (SPF, […], male) were obtained from SPF (Beijing) Biotechnology Co., Ltd (permit number: SCXK (Jing) 2019-0010). All animal related experiments were conducted under a China Pharmaceutical University (the certification of using the housing facility of laboratory animals: SYXK (Su) 2018 -0019) IACUC approved protocol in compliance with the guide for the care and use of laboratory animals (number: 202013705). […]
Representative compounds and Roxadustat were formulated in normal saline solution. […]
China Pharmaceutical University (ADVIA 2120 hematology system). […]
5.3 Improvement of anemia induced by cisplatin administration
C57BL/6J mice were treated with cisplatin ( po, 7 mg·kg-1) on days 0, 7, 14, and 28 of the experiment. On the 29th day, the animals were randomized into sham, control, and treated groups (n=5). […]
treatment anemia caused by cisplatin. The mice were treated with the compounds every alternate day for 30 days. the test sample is obtained via orbital venous plexus. The hemoglobin of samples was analyzed in the center for new drug safety evaluation and research at China Pharmaceutical University (ADVIA 2120 hematology system).

The target of series [2] is T1, human prolyl hydroxylase 2 (PHD2) (Homo sapiens, UniProt Q9GZT9).
T1 construct: (181-426); made in house
T1 sequence (Q9GZT9 181-426): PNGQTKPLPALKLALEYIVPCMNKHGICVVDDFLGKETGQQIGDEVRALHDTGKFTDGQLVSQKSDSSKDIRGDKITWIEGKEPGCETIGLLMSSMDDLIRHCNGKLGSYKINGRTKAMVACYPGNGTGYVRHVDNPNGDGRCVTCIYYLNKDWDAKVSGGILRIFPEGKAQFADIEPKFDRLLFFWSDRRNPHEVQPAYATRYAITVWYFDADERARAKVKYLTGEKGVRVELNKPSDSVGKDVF
Description: Fluorescence polarization (FP) competition assay of PHD2. The conditions noted are these: purified compounds, 20 nM PHD2 (181-426), 30 nM probe, Cheng-Prusoff, mean±SD, read-out: Ki, binding affinity for PHD2. Here is the method: 2.1 Fluorescence polarization (FP) competition assay of PHD2 [4]
FP assays were performed using a SPARK Multi-Mode Microplate Reader (Tecan) with excitation and emission filters appropriate for the fluorophore used in the binding experiment. Fluorescence polarization experiments were performed in 384-well, flat bottom, black assay plates (#3575, Corning) in a final volume of 60 µL. The final assay buffer contained: 30 nM fluorescence Probe, 20 nM PHD2 (181-426), 10 mM HEPES, pH 7.4, 150 mM NaCl, 0.05% Tween-20, and at the 1% DMSO (except for DMSO tolerance experiments, in which different DMSO concentrations were used as indicated). All plates measured in fluorescence polarization assays were incubated for a minimum of 30 min at RT. Fluorescence polarization was measured from the top of the well with a Tecan SPARK plate reader with polarized filters and optical modules for fluorescein (λex = 485 nm ± 25 nm, λem = 535 nm ± 25 nm). The standard error of the mean (SEM) values, were calculated by dividing the sample standard deviation by the square root of the sample size and are recorded as ± values for IC 50. Dose-dependent experiments were performed in th e same manner using at least 10 concentrations of the test compounds in 3 -fold serial dilutions from 100 µM. For each assay, negative controls (equivalent to 0% displacement) contained the fluorescent ligand, PHD2 (181 -426), and 20 µL FP buffer; blank cont rols contained only the fluorescent ligand and 40 µL buffer.
The reaction mixtures were incubated at RT for 60 min, then total fluorescence and fluorescence polarization measurements wer e taken. The percentage inhibition was calculated using Equation 1, where mPfree is the signal for the free probe (blank control) and mPbound is the signal for the bound probe (negative control).
IC50s were determined for duplicate measurements by non-linear least-squares analysis using GraphPad Prism 8.0.
The Ki values of the inhibitors were calculated using the Cheng-Prusoff equation.[5] Cheng-Prusoff equation: Ki = IC50 / (1 + [L]/Kd)
The Kd value was determined using a constant concentration of probe and titrating with PHD2 protein at increasing concentrations. [L] represents the concentration of the […] used in the FP assay. […]
Background: Polarisation of emitted light reports the rotation of a fluorescent probe.

What is called melting point is the temperature of the solid-liquid transition. A word on the Ki: it is a measure of affinity in units of concentration, obtained from inhibition or displacement.

On to `Cc1nc(C(=O)NCC(=O)O)c(O)c2ccc(Oc3ccccc3)cc12` [Roxadustat, reference compound], for which, in series [1], the “Improvement of anemia (%)” value is recorded as 48.5%.
In the case of `O=C(N/N=C/c1cccc(O)c1O)c1cnc(-n2cccn2)[nH]c1=O` [compound 1], the melting point was greater than 300 °C. The Ki in series [2] was determined as 113 ± 5 nM.
In the case of `O=C(N/N=C/c1cccc(O)c1O)c1cnc(-c2cccnn2)[nH]c1=O` [compound 2], the Ki in series [2] is 68 ± 6 nM.
As for `O=C(N/N=C/c1cccc(O)c1O)c1cnc(-c2ccccn2)[nH]c1=O` [compound 3], the melting point was greater than 300 °C. In series [2], the Ki is 48 ± 4 nM.
`O=C(N/N=C/c1cccc(O)c1O)c1cnc(-c2ncccn2)[nH]c1=O` [compound 4] showed a melting point greater than 300 °C. Further, the Ki in series [2] is 500 ± 16 nM.
In turn, `O=C(N/N=C/c1cccc(O)c1O)c1cnc(-n2cncn2)[nH]c1=O` [compound 5] gave a melting point greater than 300 °C. The Ki in series [2] was 548 ± 32 nM.
`O=C(N/N=C/c1ccc(O)c(O)c1)c1cnc(-c2ccccn2)[nH]c1=O` [compound 6]: the melting point lay within 294.7 to 295.2 °C. Moreover, in series [2], the Ki worked out at 2620 ± 103 nM.
`O=C(N/N=C/c1cc(O)c(O)c(O)c1)c1cnc(-c2ccccn2)[nH]c1=O` [compound 7] displayed a melting point greater than 300 °C. Moreover, in series [2], the Ki was 72 ± 5 nM.
`O=C(N/N=C/c1ccccc1O)c1cnc(-c2ccccn2)[nH]c1=O` [compound 8] had a melting point greater than 300 °C. Besides, the Ki in series [2] was found to be 639 ± 37 nM.
For `O=C(N/N=C/c1cc(O)ccc1O)c1cnc(-c2ccccn2)[nH]c1=O` [compound 9], the melting point was greater than 300 °C. In series [2], the Ki was 483 ± 9 nM.
Regarding `O=C(N/N=C/c1ccc(O)c(O)c1O)c1cnc(-c2ccccn2)[nH]c1=O` [compound 10], the melting point was greater than 300 °C. The inhibition constant (Ki) in series [2] is 130 ± 4 nM.
With `O=C(O)c1ccccc1/C=N/NC(=O)c1cnc(-c2cccnn2)[nH]c1=O` [compound 11], in series [2], the Ki stood at 119 ± 9 nM.
Consider `O=C(O)c1ccc(/C=N/NC(=O)c2cnc(-c3ccccn3)[nH]c2=O)cc1` [compound 12], for which the melting point was greater than 300 °C. In addition, the Ki in series [2] came to 103 ± 4 nM.
The corresponding values for `O=C(O)c1ccc(/C=N/NC(=O)c2cnc(-c3ncccn3)[nH]c2=O)cc1` [compound 13] are greater than 300 °C and 1050 ± 129 nM.
Taken in the same sequence, the figures for `O=C(O)c1cc(/C=N/NC(=O)c2cnc(-c3cccnn3)[nH]c2=O)ccc1O` [compound 14] were greater than 300 °C and 155 ± 18 nM.
For `O=C(O)c1cc(/C=N/NC(=O)c2cnc(-c3ccccn3)[nH]c2=O)ccc1O` [compound 15], the melting point was greater than 300 °C. The Ki in series [2] amounted to 200 ± 8 nM.
In the case of `O=C(N/N=C/c1cccc(Cl)c1O)c1cnc(-c2cccnn2)[nH]c1=O` [compound 16], the melting point was greater than 300 °C. Moreover, the Ki in series [2] was found to be 394 ± 17 nM.
Molecule `O=C(N/N=C/c1cccc(O)c1Cl)c1cnc(-c2ccccn2)[nH]c1=O` [compound 18] yielded a melting point greater than 300 °C. Moreover, the Ki in series [2] amounted to 116 ± 5 nM.
